Source: article PMC8496750, “Identification of the organic anion transporting polypeptides responsible for the hepatic uptake of the major metabolite of epyrifenacil, S‐3100‐CA, in mice” (Pharmacology Research & Perspectives, 2021)

Assays:
rat Oatp1a4 = target: T1, rat Oatp1a4 (Rattus norvegicus, UniProt O35913); test: Uptake assay for radiolabeled substrates, rat Oatp1a4 expressing 293FT cells; conditions: 10‐min incubation
T1 sequence (O35913 1-661): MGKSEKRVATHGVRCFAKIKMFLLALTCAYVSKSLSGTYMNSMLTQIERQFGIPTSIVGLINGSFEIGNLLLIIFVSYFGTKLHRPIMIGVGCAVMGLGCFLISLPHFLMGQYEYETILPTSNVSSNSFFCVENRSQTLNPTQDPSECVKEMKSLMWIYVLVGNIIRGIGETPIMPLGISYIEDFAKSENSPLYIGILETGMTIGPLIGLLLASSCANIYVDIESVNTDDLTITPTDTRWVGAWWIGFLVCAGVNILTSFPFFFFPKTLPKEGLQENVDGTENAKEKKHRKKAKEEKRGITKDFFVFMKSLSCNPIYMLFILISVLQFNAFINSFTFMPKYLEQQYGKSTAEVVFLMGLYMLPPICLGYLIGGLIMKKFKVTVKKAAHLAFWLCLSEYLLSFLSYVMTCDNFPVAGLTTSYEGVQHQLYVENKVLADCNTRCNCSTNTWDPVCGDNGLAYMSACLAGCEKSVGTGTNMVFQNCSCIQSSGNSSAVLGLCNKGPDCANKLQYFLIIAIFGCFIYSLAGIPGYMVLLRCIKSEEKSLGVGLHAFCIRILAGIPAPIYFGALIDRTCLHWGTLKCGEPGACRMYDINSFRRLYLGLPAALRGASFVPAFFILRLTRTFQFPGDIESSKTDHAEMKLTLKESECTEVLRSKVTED
Description: (§1) 293FT cells were purchased from Thermo Fisher Scientific, Inc.. The cells were grown in Dulbecco's modified Eagle medium (supplemented with 4.5 g/L glucose and 2 mM L‐glutamine) at 37°C, 5% CO2, and 95% humidity. The cells were passaged 3 times per week by harvesting cells using trypsin and plating at a density of 1.0 × 10^4 cells/cm^2 in a 10 cm cell culture plate for maintenance culture. The 293FT cells were detached using trypsin and re‐seeded at a density of 2.5 × 10^4 cells/cm^2 in BioCoat™ Collagen I 6‐well plates (Corning Inc.) for transfection and then treated with 1.2 μg of plasmid vector and 3.2 μl of Lipofectamine™ 2000 Transfection Reagent (Thermo Fisher Scientific, Inc.) according to the manufacturer's instructions. After a 3‐h treatment, the transfection medium was replaced with a fresh cell culture medium and incubated at 37°C with 95% humidity and 5% CO2 until ready for the assay.
(§2) Transport experiments were conducted approximately 24 h post‐transfection. The experiments were initiated by aspirating culture medium and addition of pre‐warmed radiolabeled substrate solution (final 1.0% of acetonitrile or 0.9% of ethanol in phosphate‐buffered saline (PBS[−])) to each well. After a 10‐min incubation, cells were washed twice with 1 ml of ice‐cold PBS(−) and lysed with 700 μl of 1.0 M NaOH for 3 h or more at room temperature. The lysate was transferred to a 1.5‐ml tube, and neutralized with 350 μl of 2.0 M HCl and 350 μl of 2.0% sodium dodecyl sulfate (SDS) solution. From the lysate, 1.0 ml was transferred to a vial containing 10 ml of Emulsifier Scintillator Plus to measure the radioactivity in the LSC. The protein concentration of the cell lysate was also measured using a Pierce™ BCA Protein Assay Kit (Thermo Fisher Scientific, Inc.), which was used to normalize, according to the cell number, the radioactivity in the cell lysate extract. The protein assay was performed in duplicate. Each sample type was assayed in triplicate wells, and each run was performed twice. When the difference in mean uptake between OATP expressing cells and mock cells was more than 2 times, the OATP was judged to be involved in transportation of the substrate. […] Each sample type was assayed in triplicate wells.

human OATP2B1 = target: T2, human OATP2B1 (Homo sapiens, UniProt O94956); test: Uptake assay for radiolabeled substrates, human OATP2B1 expressing 293FT cells; format: in vitro ADME; conditions: 10‐min incubation
T2 construct: expressed in transfected cells; host or cells: 293FT cells
T2 sequence (O94956 1-709): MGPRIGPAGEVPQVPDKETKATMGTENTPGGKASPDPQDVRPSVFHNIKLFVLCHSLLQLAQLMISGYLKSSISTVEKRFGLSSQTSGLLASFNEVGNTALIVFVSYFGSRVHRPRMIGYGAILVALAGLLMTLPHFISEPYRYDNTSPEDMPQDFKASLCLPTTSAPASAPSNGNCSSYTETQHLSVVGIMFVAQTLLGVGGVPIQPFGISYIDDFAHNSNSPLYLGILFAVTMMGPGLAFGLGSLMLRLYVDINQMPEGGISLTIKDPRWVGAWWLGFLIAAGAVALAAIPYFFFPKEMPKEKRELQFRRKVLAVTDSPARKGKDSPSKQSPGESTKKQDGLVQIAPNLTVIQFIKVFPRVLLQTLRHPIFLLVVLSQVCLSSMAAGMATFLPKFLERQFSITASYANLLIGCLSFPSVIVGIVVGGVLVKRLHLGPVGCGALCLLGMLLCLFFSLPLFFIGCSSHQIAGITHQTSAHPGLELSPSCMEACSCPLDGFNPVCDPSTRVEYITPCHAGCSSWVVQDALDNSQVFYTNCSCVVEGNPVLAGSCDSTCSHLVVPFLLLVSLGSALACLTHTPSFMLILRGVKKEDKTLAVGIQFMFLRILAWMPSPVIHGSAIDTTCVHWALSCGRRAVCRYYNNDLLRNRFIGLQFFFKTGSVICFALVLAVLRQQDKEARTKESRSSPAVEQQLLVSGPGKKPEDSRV
Description: as §1, §2

| SMILES | Ratio of uptake amount relative to the uptake into mock cells (rat Oatp1a4; Run_1) | Ratio of uptake amount relative to the uptake into mock cells (rat Oatp1a4; Run_2) | Ratio of uptake amount relative to the uptake into mock cells (human OATP2B1; Run_1) | Ratio of uptake amount relative to the uptake into mock cells (human OATP2B1; Run_2) |
| --- | --- | --- | --- | --- |
| C[C@]12CC[C@@H]3c4ccc(OS(=O)(=O)O)cc4CC[C@H]3[C@@H]1CCC2=O [E3S, Estrone 3‐sulfate] | 2.2 | 1.4 | 16.2 | 1.9 |
| Cn1c(C(F)(F)F)cc(=O)n(-c2cc(Oc3cccnc3OCC(=O)O)c(Cl)cc2F)c1=O [S‐3100‐CA] | 5.0 | 4.1 | 2.6 | 1.9 |
| C[C@]12CC[C@@H]3c4ccc(O)cc4CC[C@H]3[C@@H]1CC[C@@H]2O[C@@H]1O[C@H](C(=O)O)[C@@H](O)[C@H](O)[C@H]1O [E217βG, Estradiol 17β‐D‐glucuronide] | 6.1 | 10.4 | 1.9 | 0.6 |
